Source: ChEMBL document CHEMBL4052788, “Pocket detection and interaction-weighted ligand-similarity search yields novel high-affinity binders for Myocilin-OLF, a protein implicated in glaucoma” (Bioorg Med Chem Lett, 2017)

Key:
Myocilin (Homo sapiens) [1] = target: T1, Myocilin (Homo sapiens) (UniProt Q99972); experiment: Binding affinity myocilin-OLF domain (unknown origin) assessed as change in melting temperature by Sypro Orange dye-based DSF assay
T1 sequence (whole entry): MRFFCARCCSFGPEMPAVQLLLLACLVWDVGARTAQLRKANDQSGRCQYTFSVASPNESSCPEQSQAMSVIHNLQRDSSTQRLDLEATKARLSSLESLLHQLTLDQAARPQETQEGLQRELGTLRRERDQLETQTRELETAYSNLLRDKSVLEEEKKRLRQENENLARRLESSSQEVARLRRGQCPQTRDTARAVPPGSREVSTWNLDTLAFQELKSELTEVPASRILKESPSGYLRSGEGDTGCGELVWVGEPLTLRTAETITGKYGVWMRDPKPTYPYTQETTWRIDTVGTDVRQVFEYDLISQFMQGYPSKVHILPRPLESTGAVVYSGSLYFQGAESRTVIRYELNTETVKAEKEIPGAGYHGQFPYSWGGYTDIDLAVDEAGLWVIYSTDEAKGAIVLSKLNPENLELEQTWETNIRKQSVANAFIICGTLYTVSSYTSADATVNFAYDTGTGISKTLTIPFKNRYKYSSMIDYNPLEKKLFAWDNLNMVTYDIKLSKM

Myocilin [2] = target: T2, Myocilin (Homo sapiens, UniProt Q99972); experiment: Binding affinity myocilin-OLF domain (unknown origin) by Sypro Orange dye-based DSF assay; conditions: read-out: Kd(app)
T2 sequence (Q99972 whole entry): T1 sequence (whole entry)

Myocilin (Homo sapiens) [3] = target: T1, Myocilin (Homo sapiens); experiment: Binding affinity myocilin-OLF domain (unknown origin) assessed as change in melting temperature by SRP assay
Myocilin [4] = target: T2, Myocilin; experiment: Binding affinity myocilin-OLF domain (unknown origin) by SRP assay

In the case of `O=C(Nc1ccc(Oc2ccc(NC(=O)Nc3ccc([N+](=O)[O-])cc3)cc2)cc1)Nc1ccc([N+](=O)[O-])cc1`, the ΔTm (Myocilin (Homo sapiens) [1]) is reported as 11.2 °C and the Kd (Myocilin [2]) is reported as 0.65 µM.

`O=C(Cn1ccc(=O)[nH]c1=O)Nc1ccc(C(=O)O)c(O)c1` was tested, and the ΔTm (Myocilin (Homo sapiens) [1]) was 1.96 °C and the Kd (Myocilin [2]) was 200 µM.

With `CN(C)c1ccc(/C=C/C(=O)c2cc(Cl)ccc2O)cc1` the ΔTm (Myocilin (Homo sapiens) [1]) was 1.5 °C and the Kd (Myocilin [2]) was 220 µM.

With `Cc1cc(N(CCCl)CCCl)ccc1/C=N/NC(=O)Cc1cc(=O)oc2cc(O)ccc12` the ΔTm (Myocilin (Homo sapiens) [1]) was 1.6 °C and the Kd (Myocilin [2]) was 210 µM.

Compound `Nc1nc(N)c(/N=N/c2ccc(C(=O)O)cc2)c(N)n1` has a ΔTm (Myocilin (Homo sapiens) [1]) of 1.78 °C and a Kd (Myocilin [2]) of 190 µM.

`O=C1c2ccccc2C(=O)C1C(c1ccc([N+](=O)[O-])cc1)C1C(=O)c2ccccc2C1=O` was tested, and the ΔTm (Myocilin (Homo sapiens) [1]) was 2.02 °C and the Kd (Myocilin [2]) was 170 µM.

`COc1cc(C(=O)C(=O)c2ccc(O)c(OC)c2)ccc1O` showed a ΔTm (Myocilin (Homo sapiens) [1]) of 0.91 °C and a Kd (Myocilin [2]) of 300 µM.

Work on `O=C(/C=C/c1ccc(O)c(O)c1)c1ccccc1O` yielded a ΔTm (Myocilin (Homo sapiens) [1]) of 16.4 °C and a Kd (Myocilin [2]) of 0.099 µM.

`O=c1cc(-c2ccc(O)cc2)oc2cc(O)cc(O)c12` [APIGENIN] was tested, and the ΔTm (Myocilin (Homo sapiens) [3]) was -0.3 °C and the Kd (Myocilin [4]) was 41.6 µM.

`Cc1ccc(C(C)C)cc1NC(=O)Nc1ccc([N+](=O)[O-])cc1` showed a ΔTm (Myocilin (Homo sapiens) [1]) of 6.3 °C and a Kd (Myocilin [2]) of 11 µM.

`COc1cccc(NC(S)=Nc2ccc(O)cc2)c1` gave a ΔTm (Myocilin (Homo sapiens) [1]) of 32 °C.

With `O=C1Nc2ccc(I)cc2C1=Cc1cc(Br)c(O)c(Br)c1` [GW305074X] the ΔTm (Myocilin (Homo sapiens) [3]) was 0.2 °C and the Kd (Myocilin [4]) was 33.5 µM.
